Patent publication US20260183302A1, “PDK1 REGULATORY COMPOUND AND COMPOSITION CONTAINING THE SAME” (PROVIBIO CO., LTD., priority 2024, published 2026)

Experiments:
[1] = system: Human Head and Neck cancer, Fadu; test: Relative cell viability, Fadu (CCK-8); format: cell-based; settings: relative to untreated cells
Experimental: Human-derived head and neck cancer cell line Fadu and osteosarcoma cell line Saos-2 were cultured in MEM medium containing 10% FBS, 100 U/mL penicillin, and 100 μg/mL streptomycin.
(§1) Following stabilization, the cells were harvested using Trypsin-EDTA treatment, centrifuged at 1,200 rpm for 3 minutes, the supernatant was removed, and the cells were resuspended in the same medium. They were then seeded into a 96-well plate (Costar 96-well cell culture plate, Corning) at 100 μL per well, and the conditions were adjusted as indicated in Table 5.
The cells were cultured in a 5% CO2 incubator at 37° C. for 24 hours, and after stabilization of the cells, each plate was washed with 200 μL of PBS per well and treated with 50 μL of culture medium per well.
(§2) After that, 10 μL of CCK-8 was added to each well, and the plate was incubated again at 37° C. in a 5% CO2 incubator for 2 hours.
(§3) In other words, when the survival rate of untreated cells (DMSO) is set at 100%, the relative cell survival rate in each group treated with the drug at different concentrations is indicated.

[2] = system: Human B Lymphocyte cell line, SU-DHL-8; test: Relative cell viability, SU-DHL-8 (CCK-8); format: cell-based; settings: 48 hours, untreated (DMSO) = 100%
How it was run: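 Cells grown in RPMI-1640 with 10% FBS, treated with compound at several concentrations, then given CCK-8 for 4 h at 37° C. Viability expressed as percent of DMSO-treated cells.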

[3] = system: Human Bladder cancer cell, T24; test: Relative cell viability, T24 (CCK-8); format: cell-based; settings: 48 hours
Experimental: Human-derived breast cancer cell line MCF-7, human-derived lung cancer cell line A549, human-derived colorectal cancer cell line HCT-116, human pancreatic cancer cell line AsPC-1, glioblastoma cell line A172, and melanoma cell line Malme-3M were obtained from the Korean Cell Bank. gastric cancer cell line SNU-719, and bladder cancer cell line T24 were cultured in RPMI-1640 medium containing 10% FBS.
as §1
The cells were cultured in a 5% CO2 incubator at 37° C. for 24 hours, and after stabilization of the cells, each plate was washed with 200 μL of PBS per well and treated with 50 μL of culture medium per well. […]
as §2, §3

[4] = system: T cells isolated from mouse spleens; test: T cell proliferation inhibition (CFSE flow cytometry, anti-CD3/anti-CD28 stimulation); format: cell-based, C57BL/6 mice; settings: three days
How it was run: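 Splenic T cells from 7-week-old C57BL/6 mice, CFSE-labelled, 2× 10^5 cells/well, stimulated with anti-CD3 and anti-CD28 (0.5 μg/mL each). Compound at 10 nM-50 μM in triplicate for three days at 37 °C, 5% CO2; proliferation inhibition (%) derived by flow cytometry.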

## 12-[4-(2,2-dimethylmorpholin-4-yl)]dodecyl-N-(6-aminopurine-2-yl) carboxamide [Compound 11]
[1]; concentration 1 μM
  Relative cell viability (%): 2.08%
[1]; concentration 10 μM
  Relative cell viability (%): 9.68%
[1]; concentration 30 μM
  Relative cell viability (%): 8.51%
[1]; concentration 50 μM
  Relative cell viability (%): 4.78%
[2]; SU-DHL-8, 1 μM
  Relative cell viability (%): 7.63%
[2]; SU-DHL-8, 10 μM
  Relative cell viability (%): 6.09%
[2]; SU-DHL-8, 30 μM
  Relative cell viability (%): 4.82%
[2]; SU-DHL-8, 50 μM
  Relative cell viability (%): 3.29%
[3]; T24, 1 μM
  Relative cell viability (%): 28.15%
[3]; T24, 10 μM
  Relative cell viability (%): 31.17%
[3]; T24, 30 μM
  Relative cell viability (%): 30.42%
[3]; T24, 50 μM
  Relative cell viability (%): 29.34%
[4]; concentration 10 nM
  Proliferation inhibition rate (%): −25.47%
[4]; concentration 100 nM
  Proliferation inhibition rate (%): 100.00%
[4]; concentration 1 μM
  Proliferation inhibition rate (%): 100.00%
[4]; concentration 10 μM
  Proliferation inhibition rate (%): 100.00%
[4]; concentration 30 μM
  Proliferation inhibition rate (%): 100.00%
[4]; concentration 50 μM
  Proliferation inhibition rate (%): 100.00%
